Biological target: T1, Catenin beta-1 (Homo sapiens, UniProt P35222)
T1 sequence (P35222 whole entry): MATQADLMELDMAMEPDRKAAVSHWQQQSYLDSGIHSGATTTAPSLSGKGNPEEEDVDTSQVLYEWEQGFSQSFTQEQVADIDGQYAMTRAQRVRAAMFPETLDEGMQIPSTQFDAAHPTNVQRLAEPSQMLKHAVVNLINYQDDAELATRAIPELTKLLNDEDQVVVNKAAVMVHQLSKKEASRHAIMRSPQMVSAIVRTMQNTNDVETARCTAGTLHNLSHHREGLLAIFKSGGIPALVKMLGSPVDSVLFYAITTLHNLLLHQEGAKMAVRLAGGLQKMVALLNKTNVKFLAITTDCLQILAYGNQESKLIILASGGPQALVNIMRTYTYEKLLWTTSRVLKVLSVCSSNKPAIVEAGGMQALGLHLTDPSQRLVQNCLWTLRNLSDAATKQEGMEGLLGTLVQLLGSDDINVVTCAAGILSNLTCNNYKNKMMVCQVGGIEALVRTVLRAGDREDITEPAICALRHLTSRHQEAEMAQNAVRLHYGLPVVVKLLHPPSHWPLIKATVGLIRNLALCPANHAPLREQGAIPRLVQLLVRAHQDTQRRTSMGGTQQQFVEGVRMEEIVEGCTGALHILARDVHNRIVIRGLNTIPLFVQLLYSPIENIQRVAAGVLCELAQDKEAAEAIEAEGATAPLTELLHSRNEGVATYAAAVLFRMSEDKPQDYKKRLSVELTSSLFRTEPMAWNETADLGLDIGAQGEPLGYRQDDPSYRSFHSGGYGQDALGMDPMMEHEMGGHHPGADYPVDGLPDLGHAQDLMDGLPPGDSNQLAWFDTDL
Test: Inhibition of His6-tagged human beta-Catenin (138 to 686 residues)/biotinylated human BCL9 (350 to 375 residues) protein-protein interaction assessed as inhibition constant by AlphaScreen competitive assay

Compound `O=C(Nc1ccc(O[C@H]2CCNC2)c(-c2ccc(F)cc2)c1)c1ccc(O[C@H]2CCNC2)c(-c2ccc(F)c(F)c2)c1` has a Ki of 2100 nM.
